# Laboratory results reported in publication PMC5398486, “Cheminformatics-aided discovery of small-molecule Protein-Protein Interaction (PPI) dual inhibitors of Tumor Necrosis Factor (TNF) and Receptor Activator of NF-κB Ligand (RANKL)” (PLoS Computational Biology, 2017).
# Like-named read-outs stand apart in the source and are kept apart here.
# What was measured:
# RANKL = target: T1, RANKL (Homo sapiens, UniProt O14788); test: Fluorescence-based binding affinity assay, RANKL; settings: for 'n' value from Scatchard plot (ligand binding sites per protein molecule): RANKL, binding assay raw data
# T1 sequence (O14788 143-317): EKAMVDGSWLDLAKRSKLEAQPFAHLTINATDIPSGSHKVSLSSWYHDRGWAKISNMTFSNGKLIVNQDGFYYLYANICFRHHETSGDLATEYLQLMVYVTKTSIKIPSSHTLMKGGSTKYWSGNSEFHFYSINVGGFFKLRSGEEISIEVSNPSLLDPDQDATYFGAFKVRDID
# Experimental: For use in the binding assays, recombinant TNF and RANKL were expressed and purified as previously described.[84–86] Fluorescence intensity was measure with a Synergy H1 Multi-Mode Reader (BioTek) in 96-well microplates (black) at 25°C. […] During preparation of the solutions the buffer was firstly added to all wells followed by the ligand solution and finally the protein was added. All solutions were mixed by pipetting and equilibrated for 1h at 25°C before measurement. […] Experiments were performed for TNF in 10 mM citrate-phosphate (pH 6.5) and for RANKL in 25 mM Tris–HCl buffer, 100 mM NaCl (pH 7.5); both buffers were supplemented with PEG3350 at the concentrations indicated in the respective figures. Kd values were calculated as mean ± SEM from three independent experiments.
# Differences in fluorescence intensity between the protein/ligand complex and free protein (or free ligand) were analysed as previously described in [Papaneophytou et al. (2013) ACS Med Chem Lett. 4: 137-141] (Eq. S6) in order to determine the dissociation constant (Kd) of the various protein-ligand systems.
# In Eq. (S6) Fobs is the observed fluorescence intensity; FBG is the fluorescence background signal; MFLF [picture] and PF are the molar fluorescence and concentration of free protein, respectively; FR is the fluorescence ratio of bound protein (or bound ligand in the case of a fluorescence ligand); LT and PT are the total concentrations of ligand and protein, respectively. A detailed analysis of the development of the fluorescence ligand-binding assay is given in [Papaneophytou et al. (2013) ACS Med Chem Lett. 4: 137-141].
# [1] = Solubility with PEG3350 as co-solvent; assay type: physicochemical
# Excerpt: PEG3350 was used as co-solvent in order to enhance inhibitors solubility and thus eliminate the possibility of aggregates formation. | column: Solubility (μM)
# TNF/TNFR1 interaction = target: T2, TNF/TNFR1 interaction (Homo sapiens, UniProt P01375); test: TNF/TNFR1 ELISA assay; assay type: binding
# T2 construct: purchased PeproTech
# Experimental: 96-well plates were coated with 0.1 mg/mL recombinant soluble human TNFR1 (PeproTech) in PBS overnight at 4°C. […] After two consecutive rounds of washes, plates were incubated with a rabbit anti-human-TNF antibody (provided by Prof. W. A. Buurman, University of Maastricht) and an anti-rabbit secondary antibody conjugated with HRP (Vector Laboratories). Both incubations were for 1 h and were performed at room temperature. Following a last round of washes, the signal was finally developed using the TMB Substrate Kit (ThermoFisher Scientific) and was measured spectrophotometrically at 450 nm. Experiments were performed in triplicate. Having established that the selected compounds obstruct TNF function, and since TNF exerts its functions mainly through interacting with the TNFR1 receptor, a further test was performed to evaluate the effect of inhibition on this protein-receptor interaction.
# BM viability (MTT assay) = assay type: cell-based; settings: primary bone marrow cells, M-CSF 25 ng/mL, read-out: LC50 (RANKL complexes, BM viability)
# Experimental: BMs were plated on 96-well plates at a density of 10^5 cells/well and treated with T8 and T23 at various concentrations, in the presence of M-CSF (25 ng/mL) for 48 hours. Cell viability was determined by the 3-(4,5-dimethylthiazol-2-yl)-2,5-diphenyltetrazolium bromide (MTT) colorimetric assay, which measures the ability of viable cells to reduce a soluble tetrazolium salt to an insoluble purple formazan precipitate.[63] After removal of the medium, each well was incubated with 0.5 mg/mL MTT (Sigma-Aldrich, St. Louis, MO) in serum-free α-MEM at 37°C for 3 h. At the end of the incubation period, the medium was removed and the intracellular formazan was solubilized with 200 μL DMSO and quantified by reading the absorbance at 550 nm on a microplate reader (Optimax; Molecular Devices, Sunnyvale, CA). Cell viability (%) was expressed as a percentage of the negative control treated without compounds. LC50 values were calculated as mean ± SEM from three independent experiments.
# [2] = RANKL 0.5 μM, PEG3350 2.5%, 25 mM Tri-HCl, 100 mM NaCl pH 7.5, read-out: Binding affinity (Kd), RANKL
# [3] = RANKL 0.5 μM, PEG3350 5%, 25 mM Tri-HCl, 100 mM NaCl pH 7.5, read-out: Binding affinity (Kd), RANKL
# [4] = RANKL 1.5 μM, PEG3350 5%, 25 mM Tri-HCl, 100 mM NaCl pH 7.5, read-out: Binding affinity (Kd), RANKL
# [5] = RANKL 2.5 μM, PEG3350 5%, 25 mM Tri-HCl, 100 mM NaCl pH 7.5, read-out: Binding affinity (Kd), RANKL
# [6] = fluorescence assay, 25°C, 25 mM Tris-HCl, 100 mM NaCl, pH 7.5, 5% PEG3350, read-out: Kd (RANKL complexes)
# [7] = 2.5% v/v PEG3350 as co-solvent, PEG3350 2.5% v/v
# [8] = 5% v/v PEG3350 as co-solvent, aqueous with cosolvent or surfactant or cyclodextrin, PEG3350 5% v/v
# T2 sequence (P01375 77-233 limits assumed): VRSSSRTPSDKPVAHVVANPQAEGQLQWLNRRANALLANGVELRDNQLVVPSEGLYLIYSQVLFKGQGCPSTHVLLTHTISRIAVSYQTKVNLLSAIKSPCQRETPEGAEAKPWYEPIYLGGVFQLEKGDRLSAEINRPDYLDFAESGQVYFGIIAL
Structure (SMILES),"Kd (RANKL; RANKL 0.5 μM, PEG3350 0%, 25 mM Tri-HCl, 100 mM NaCl pH 7.5, read-out: Binding affinity (Kd), RANKL) [µM]",Kd (RANKL; [2]) [µM],Kd (RANKL; [3]) [µM],Kd (RANKL; [4]) [µM],Kd (RANKL; [5]) [µM],'n' value from Scatchard plot (ligand binding sites per protein molecule) (RANKL),Kd (RANKL; [6]) [µM],"solubility [1, 7] [µM]","solubility [1, 8] [µM]",solubility ([1]; PEG3350 0% v/v) [µM],IC50 (TNF/TNFR1 interaction) [µM],CC50 at 48 h (BM viability (MTT assay)) [µM]
"COc1cc(OC(C)=O)c(-c2cc(OC(C)=O)c(OC)cc2OC(C)=O)cc1OC(C)=O [Compound T23, [4-acetyloxy-2-(2,5-diacetyloxy-4-methoxyphenyl)-5-methoxyphenyl] acetate]",7.02 ± 0.63,7.44 ± 0.52,7.25 ± 0.44,7.62 ± 0.84,7.02 ± 0.33,1,7.3 ± 0.4,88,117,36,3 ± 0.1,5.9 ± 0.3
"O=C(NNC(=NS(=O)(=O)c1ccc(-n2nc(C(F)(F)F)cc2-c2cccs2)cc1)N1CCCC1)c1ccc(Cl)cc1 [Compound T8, N-[(4-chlorobenzoyl)amino]-N'-[4-[5-thiophen-2-yl-3-(trifluoromethyl)pyrazol-1-yl]phenyl]sulfonylpyrrolidine-1-carboximidamide]",,6.15 ± 0.22,6.32 ± 0.62,6.55 ± 0.84,6.05 ± 0.37,1,6.3 ± 0.6,32,48,< 1,30 ± 2.3,42.6 ± 4.3
